{
  "source": "patent US11661439B2",
  "about": "“Peptide hydrogels and use thereof” (The United States of America, as represented by the …, priority 2017, dated 2023)",
  "key": {"[1]": {"system": "human dermal fibroblasts (HDFs)", "assay": "3D cell encapsulation culture of HDFs in gels", "format": "cell-based", "description": "3D cell culture in peptide gels. Peptides were initially dissolved in 285 mM sucrose at 1 wt % on ice and mixed with an equal volume of cell suspension in serum-free HEPES-supplemented DMEM (2×10^6 cells mL^−1). The cell-peptide suspension (5×10^4 cells per 50 μL per insert) was transferred to a Falcon cell culture insert (for 24-well plates, 8 μm pore size, Corning) and incubated at 37° C. for 30 min for gelation. These inserts were previously coated with the empty hydrogel (30 μL per insert) to avoid cell adhesion to the bottom surface of the inserts. After gelation of cell-peptide solution, 500 μL of Essential 8 Medium were added to the top and bottom of the gels. Type I collagen gels were prepared following manufacturer's instructions. Briefly, a 0.4 wt % collagen solution was prepared on ice and mixed with cell suspension in serum-free DMEM (4×10^6 cells mL^−1) at a ratio of 3:1 (0.3 wt % collagen, 1×10^6 cells mL^−1).\nCell viability assay. Cell viability was evaluated by live and dead cell staining after 2D and 3D cell culture. Serum-free DMEM containing 1 μM calcein-AM and 2 μM ethidium homodimer-1 was added to the cells (200 μL per well for 2D culture and 500 μL each to the top and bottom of the gels for 3D culture). After incubation at 37° C. for 30 min, live and dead cells were visualized using EVOS FL Auto Cell Imaging System (Thermo Fisher Scientific). For the pseudo-colored composite image of varying heights of encapsulated cells, images of the live-stained cells were captured every 5 μm of height. Then Z-stack images for each 100 μm were flattened using the EVOS software, and the flattened images were pseudo-colored and merged using ImageJ.\nCell proliferation assay. A cell proliferation assay was performed using Cell Counting Kit-8 (CCK-8, Dojindo Molecular Technologies) for 2D and 3D cell culture. […] Subsequently, media were transferred to 96-well plates (150 μL per well) and their absorbance measured at 450 nm relative to control viabilities from day 0 for 2D cell culture and day 1 for 3D cell culture. […]"}, "[2]": {"assay": "Rheology of cell-encapsulating gels after 4 days of 3D culture", "format": "physicochemical", "details": "1000% strain for 30 s every 10 min", "description": "FIGS. 7A-7E. Three-dimensional culturing of HDFs. HDFs were 3D cultured with 0.5 wt % peptide hydrogels or 0.3 wt % collagen hydrogels with Essential 8 Medium. (7A) Live and dead cells were visualized on days 1, 4, and 7, using calcein AM and ethidium homodimer-1 staining, respectively (scale bar=100 μm). (7B) Cell growth was monitored by quantifying cell viability on days 1, 4, and 7. Data are represented as mean±SD of three independent replicates. (7C) A pseudo-colored composite of varying depths (0-500 μm) of Z-stacked images of live cells stained with calcein AM in 0.5% AcVES3-RGDV hydrogels on day 4 (scale bar=100 μm). […] (7D) Z-stack image of cytoskeleton organization in the hydrogels on day 4 with actin and nuclei (scale bar=100 μm) stained. (7E) Shear-thinned recovery of cells encapsulated in 0.5 wt % AcVES3-RGDV hydrogel after 3D culturing for 4 days. Hydrogels were shear-thinned at 1000% strain for 30 s (indicated by dashed line) every 10 min and allowed to recover by reducing the strain to 0.2%.\nRheology measurements of cell-encapsulating gels after 4 days of 3D cell culturing were performed using 8-mm stainless steel parallel plate geometry with a 0.5 mm gap height. A cell-encapsulating gel (100 μL) in a transwell insert (for 24 well plates, Corning) was transferred to the rheometer plate previously equilibrated at 37° C. and oil was placed around the sample. […]"}, "[3]": {"assay": "TEM analysis of peptide fibrils", "format": "physicochemical", "details": "30 independent measurements", "description": "FIG. 4. Fibril visualization of β-hairpin peptide hydrogels. Transmission Electron Microscopy (TEM) images of peptide fibrils and frequency distributions determined from 30 independent measurements (scale bar=100 nm).\nTransmission electron microscopy (TEM) analysis. The hydrogel nanostructure of the peptide gels was observed using a Hitachi H-7650 transmission electron microscope at a voltage of 80 kV. A 1 wt % solution of peptide and an equal volume of buffer (50 mM HEPES containing 300 mM NaCl, pH 7.4) was mixed and incubated overnight at 37° C. to allow for gelation. The next day, samples for TEM analysis were prepared by suspending 5 μL of the resulting peptide gel in 195 μL of water to yield a 40-fold dilution. Small amounts (5 μL) of each diluted gel solution were applied to separate carbon coated copper grids. After 1 min, the grid was washed with water. Then, a 1 w/v % uranyl acetate aqueous solution was placed on each grid for negative staining. Excess staining solution was blotted away, left to air dry, and the grids were imaged immediately."}},
  "note": "Non-standard residues stand in square brackets, D forms with d. Residues, ends and D or L forms follow the SMILES beside them.",
  "data": [
    {"compound": "CC(=O)N[C@H](C(=O)N[C@@H](CCC(=O)O)C(=O)N[C@H](C(=O)N[C@@H](CO)C(=O)N[C@H](C(=O)N[C@@H](CO)C(=O)N[C@H](C(=O)N[C@@H](CCC(=O)O)C(=O)N[C@H](C(=O)N1CCC[C@@H]1C(=O)N1CCC[C@H]1C(=O)N[C@H](C(=O)N[C@@H](CCC(=O)O)C(=O)N[C@H](C(=O)N[C@@H](CO)C(=O)N[C@H](C(=O)N[C@@H](CCC(=O)O)C(=O)N[C@H](C(=O)N[C@@H](CCC(=O)O)C(=O)N[C@H](C(=O)NCC(=O)NCC(=O)NCC(=O)NCC(=O)N[C@@H](CCCNC(=N)N)C(=O)NCC(=O)N[C@@H](CC(=O)O)C(=O)N[C@H](C(N)=O)C(C)C)C(C)C)C(C)C)C(C)C)C(C)C)[C@@H](C)O)C(C)C)C(C)C)C(C)C)C(C)C)C(C)C", "note": "[AcVES3-RGDV] (Ac-VEVSVSVEV[dP]PTEVSVEVEVGGGGRGDV-NH2)", "values": [
      {"measurement": "cell proliferation rate relative to the collagen gel", "setting": "[1]; 3D culture, Essential 8 Medium", "value": "2-3 fold"},
      {"measurement": "cell proliferation of encapsulated HDFs, 3D culture", "setting": "[1]; Essential 8 Medium, one week", "value": "proliferated well with minimal cell death"},
      {"measurement": "distribution of encapsulated cells in the gel", "setting": "[1]; day 4, heights 0-500 μm", "value": "homogenously distributed throughout the gel matrix"},
      {"measurement": "storage moduli after multiple physical disruptions", "setting": "[2]", "value": "constant"},
      {"measurement": "average fibril width", "setting": "[3]", "value": "4.0±0.4", "unit": "nm"}
    ]}
  ]
}
